Key:
[1] = target: T1, Testis-specific serine/threonine-protein kinase 1 (Homo sapiens) (UniProt Q9BXA7); settings: at 10 µM
T1 sequence (whole entry): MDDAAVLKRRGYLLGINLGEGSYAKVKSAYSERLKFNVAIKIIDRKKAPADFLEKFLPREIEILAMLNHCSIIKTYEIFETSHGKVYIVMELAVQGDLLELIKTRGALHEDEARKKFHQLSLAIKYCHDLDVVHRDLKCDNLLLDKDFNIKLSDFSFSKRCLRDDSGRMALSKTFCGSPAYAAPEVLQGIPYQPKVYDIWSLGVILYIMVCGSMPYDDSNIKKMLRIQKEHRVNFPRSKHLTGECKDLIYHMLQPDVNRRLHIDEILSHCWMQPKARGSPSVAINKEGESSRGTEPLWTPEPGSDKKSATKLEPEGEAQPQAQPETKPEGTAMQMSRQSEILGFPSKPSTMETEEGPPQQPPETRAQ

[2] = target: Calcium/calmodulin-dependent protein kinase type 1G (Homo sapiens) (UniProt Q96NX5); assay: Selectivity interaction (Kinase panel (DSF assay)) EUB0001558a CAMK1G
[3] = target: Calcium/calmodulin-dependent protein kinase type II subunit delta (Homo sapiens) (UniProt Q13557); assay: Selectivity interaction (KinomeScan (DiscoverX)) EUB0000666a CAMK2D; settings: at 10 µM
[4] = target: Cyclin-dependent kinase 1/cyclin B (Homo sapiens) (UniProt P06493+P14635+Q8WWL7+O95067); assay: Selectivity interaction (Millipore kinase profiler) EUB0000124b CDK1; assay type: protein-complex assay; settings: at 10 µM
[5] = target: T2, Protein kinase C epsilon type (Homo sapiens) (UniProt Q02156); assay: Selectivity interaction (KinomeScan (DiscoverX)) EUB0000311b PRKCE; settings: at 1 µM
T2 sequence (whole entry): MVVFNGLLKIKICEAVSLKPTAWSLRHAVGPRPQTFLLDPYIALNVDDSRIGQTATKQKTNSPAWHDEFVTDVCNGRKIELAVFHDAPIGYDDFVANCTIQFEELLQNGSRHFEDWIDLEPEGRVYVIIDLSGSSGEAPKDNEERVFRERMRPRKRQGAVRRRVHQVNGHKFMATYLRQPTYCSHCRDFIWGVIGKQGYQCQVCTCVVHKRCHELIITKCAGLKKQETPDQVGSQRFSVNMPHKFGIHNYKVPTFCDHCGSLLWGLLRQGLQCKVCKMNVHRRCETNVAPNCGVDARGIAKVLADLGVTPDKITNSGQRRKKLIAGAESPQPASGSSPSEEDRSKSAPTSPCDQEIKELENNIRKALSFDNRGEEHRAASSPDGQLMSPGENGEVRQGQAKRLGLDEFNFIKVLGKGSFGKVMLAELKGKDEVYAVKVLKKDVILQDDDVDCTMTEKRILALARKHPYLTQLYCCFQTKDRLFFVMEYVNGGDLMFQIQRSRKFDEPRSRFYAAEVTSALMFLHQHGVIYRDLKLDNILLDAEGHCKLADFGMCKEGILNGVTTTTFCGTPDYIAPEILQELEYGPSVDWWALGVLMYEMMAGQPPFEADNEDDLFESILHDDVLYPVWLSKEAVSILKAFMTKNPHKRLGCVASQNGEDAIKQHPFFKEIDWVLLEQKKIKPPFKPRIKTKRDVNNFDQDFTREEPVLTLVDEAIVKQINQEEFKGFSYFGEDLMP

[6] = target: Delta-type opioid receptor (Homo sapiens, UniProt P41143); assay: Selectivity interaction (GPCR panel (PDSP screen)) EUB0000311b OPRD1; settings: at 10 µM
[7] = target: Mitogen-activated protein kinase 3 (Homo sapiens, UniProt P27361); assay: Selectivity interaction (KinomeScan (DiscoverX)) EUB0000045b MAPK3
[8] = target: T3, Aurora kinase A (Homo sapiens) (UniProt O14965); assay: Selectivity interaction (KinomeScan (DiscoverX)) EUB0000045b STK6
T3 sequence (whole entry): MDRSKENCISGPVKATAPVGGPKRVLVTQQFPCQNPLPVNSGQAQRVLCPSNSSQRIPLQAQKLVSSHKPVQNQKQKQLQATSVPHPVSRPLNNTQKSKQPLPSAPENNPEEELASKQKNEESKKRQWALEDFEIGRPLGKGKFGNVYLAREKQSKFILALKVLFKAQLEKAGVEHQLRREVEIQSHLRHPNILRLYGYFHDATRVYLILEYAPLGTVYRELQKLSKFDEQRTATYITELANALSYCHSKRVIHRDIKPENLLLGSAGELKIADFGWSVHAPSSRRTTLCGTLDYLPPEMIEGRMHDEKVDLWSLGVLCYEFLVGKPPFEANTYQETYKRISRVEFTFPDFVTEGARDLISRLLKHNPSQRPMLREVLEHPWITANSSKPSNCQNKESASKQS

[9] = target: T4, Myosin light chain kinase family member 4 (Homo sapiens) (UniProt Q86YV6); assay: Selectivity interaction (KinomeScan (DiscoverX)) EUB0000618a MYLK4; settings: at 10 µM
T4 sequence (whole entry): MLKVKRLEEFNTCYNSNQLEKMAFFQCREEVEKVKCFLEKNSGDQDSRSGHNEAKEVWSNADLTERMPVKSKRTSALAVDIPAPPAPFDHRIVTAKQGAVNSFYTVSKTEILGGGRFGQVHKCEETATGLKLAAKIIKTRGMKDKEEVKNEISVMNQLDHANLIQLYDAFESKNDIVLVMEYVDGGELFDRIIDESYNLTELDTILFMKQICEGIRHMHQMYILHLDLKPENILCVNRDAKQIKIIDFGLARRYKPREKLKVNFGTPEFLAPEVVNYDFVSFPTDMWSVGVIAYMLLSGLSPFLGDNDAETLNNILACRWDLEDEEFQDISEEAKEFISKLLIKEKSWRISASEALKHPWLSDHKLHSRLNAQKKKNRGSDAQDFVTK

Sequence of Mitogen-activated protein kinase 3 (P27361 whole entry): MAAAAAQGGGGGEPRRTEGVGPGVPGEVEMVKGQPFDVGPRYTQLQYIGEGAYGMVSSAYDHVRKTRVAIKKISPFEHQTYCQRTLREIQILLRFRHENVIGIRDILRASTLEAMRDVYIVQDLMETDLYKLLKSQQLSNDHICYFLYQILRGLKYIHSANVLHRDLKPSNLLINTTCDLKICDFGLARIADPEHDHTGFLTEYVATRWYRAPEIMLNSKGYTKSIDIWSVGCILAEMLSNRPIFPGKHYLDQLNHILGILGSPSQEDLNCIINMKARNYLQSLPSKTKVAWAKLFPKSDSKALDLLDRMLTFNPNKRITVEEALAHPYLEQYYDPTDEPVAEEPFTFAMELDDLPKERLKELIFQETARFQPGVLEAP
Sequence of Delta-type opioid receptor (P41143 whole entry): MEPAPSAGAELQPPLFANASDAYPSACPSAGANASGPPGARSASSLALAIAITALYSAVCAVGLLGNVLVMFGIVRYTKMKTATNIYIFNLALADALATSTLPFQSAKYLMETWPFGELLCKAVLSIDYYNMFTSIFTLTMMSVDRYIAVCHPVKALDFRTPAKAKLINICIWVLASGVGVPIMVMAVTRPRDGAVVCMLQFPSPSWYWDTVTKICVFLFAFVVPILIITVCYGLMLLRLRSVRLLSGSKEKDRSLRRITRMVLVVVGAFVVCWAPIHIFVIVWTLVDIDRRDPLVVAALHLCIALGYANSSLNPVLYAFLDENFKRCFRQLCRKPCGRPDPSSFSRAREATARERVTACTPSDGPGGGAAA
Sequence of Calcium/calmodulin-dependent protein kinase type 1G (Homo sapiens) (Q96NX5 whole entry): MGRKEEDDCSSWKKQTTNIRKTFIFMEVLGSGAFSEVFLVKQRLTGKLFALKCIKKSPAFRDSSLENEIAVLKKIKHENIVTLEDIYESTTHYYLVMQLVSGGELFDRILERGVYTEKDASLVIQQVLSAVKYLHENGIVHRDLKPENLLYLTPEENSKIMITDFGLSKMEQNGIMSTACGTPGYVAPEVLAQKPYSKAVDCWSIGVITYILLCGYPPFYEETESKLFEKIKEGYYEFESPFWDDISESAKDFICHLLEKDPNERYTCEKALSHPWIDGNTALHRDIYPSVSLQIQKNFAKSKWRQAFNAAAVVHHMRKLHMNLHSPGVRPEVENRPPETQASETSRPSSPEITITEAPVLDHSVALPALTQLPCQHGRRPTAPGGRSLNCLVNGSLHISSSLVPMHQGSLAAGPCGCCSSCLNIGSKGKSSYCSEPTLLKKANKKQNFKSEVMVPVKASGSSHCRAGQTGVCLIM
Sequence of Calcium/calmodulin-dependent protein kinase type II subunit delta (Homo sapiens) (Q13557 whole entry): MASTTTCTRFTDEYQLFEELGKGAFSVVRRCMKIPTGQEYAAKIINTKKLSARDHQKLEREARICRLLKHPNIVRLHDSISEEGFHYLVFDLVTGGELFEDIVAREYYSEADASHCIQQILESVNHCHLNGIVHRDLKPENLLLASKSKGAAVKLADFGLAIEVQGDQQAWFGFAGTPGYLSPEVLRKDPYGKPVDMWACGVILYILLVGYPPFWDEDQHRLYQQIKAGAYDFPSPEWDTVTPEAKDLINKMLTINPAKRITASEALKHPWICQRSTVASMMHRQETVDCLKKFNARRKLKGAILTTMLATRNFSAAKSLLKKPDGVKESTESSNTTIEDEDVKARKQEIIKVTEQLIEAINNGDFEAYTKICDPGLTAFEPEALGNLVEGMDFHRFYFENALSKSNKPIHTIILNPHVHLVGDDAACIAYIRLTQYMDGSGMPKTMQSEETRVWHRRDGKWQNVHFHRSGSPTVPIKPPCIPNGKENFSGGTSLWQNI

Structure (SMILES): CCN(CC)CCCCNc1ncc2cc(-c3cc(OC)cc(OC)c3)c(NC(=O)NC(C)(C)C)nc2n1
- % of control [1]: 100%

Structure (SMILES): CC(C)(O)[C@H](F)CN1Cc2cc(NC(=O)c3cnn4cccnc34)c(N3CCOCC3)cc2C1=O
- dTM [2]: 0.4 K

Structure (SMILES): O=C(NOC[C@H](O)CO)c1ccc(F)c(F)c1Nc1ccc(I)cc1F
- % of control [3]: 100%

Structure (SMILES): CC(=O)Nc1cccc(-n2c(=O)n(C3CC3)c(=O)c3c(Nc4ccc(I)cc4F)n(C)c(=O)c(C)c32)c1
- % of control [4]: 104%

Structure (SMILES): CCc1ccccc1C(=O)Nc1n[nH]c2c(C)c(F)c(C3C(C#N)=C(C)N(C)C(C)=C3C#N)cc12 [BAY-3827]
- % of control [5]: 19%
- % of inhibition [6]: 20.5%

Structure (SMILES): C=CC(=O)Nc1cc(-n2c(=O)ccc3cnc4ccc(-c5ccc(NS(C)(=O)=O)cc5)cc4c32)ccc1C
- % of control ([7]; at 1 µM): 100%
- % of control ([7]; at 10 µM): 79%
- % of control ([8]; at 1 µM): 75%
- % of control ([8]; at 10 µM): 100%

Structure (SMILES): O[C@H]1CC[C@H](Nc2ncc3nc(Nc4c(F)cc(F)cc4F)n([C@H]4CCOC4)c3n2)CC1
- % of control [9]: 100%

Reference: ChEMBL document CHEMBL5465560, “Selectivity Literature for EUbOPEN Chemogenomic Library” (2024)
